Results as given in US8877747B2, “Indenone derivative and pharmaceutical composition comprising same” (Korea Research Institute of Chemical Technology, priority 2009, dated 2014).
Where a name gives a salt, the structure may show the parent alone.

test system: MC3T3-E1 cells; assay: ALP activity, differentiation of osteoblast cells; format: cell-based; details: Mus musculus, MC3T3-E1, 144 h; MC3T3E1 cells treated with 10 μM compound and OF; relates activity to OF-only group (100%); higher = more efficacious
Protocol: To examine the effects of the inventive indenone derivatives on the differentiation and activation of osteoblast cells, the activity and expression of alkaline phosphatase (ALP), a marker for the differentiation of osteoblast cells, and the bone nodule formation using a mouse derived osteoblast-like cells, MC3T3-E1 (ATCC, Japan) or a primary mouse calvaria derived preosteoblastic cells were observed.
MC3T3-E 1 cells were seeded in a medium containing osteogenic factors (OF) such as ascorbic acids and β-glycerophosphates (b-GP), and each compound of Examples was added thereto at a concentration of 0.1, 1 and 10 μM. The cells were incubated for 6 days (MC3T3-E1 cells) or 7 days (primary mouse calvaria derived preosteoblastic cells) in a 37° C. CO2 incubator. Then, the culture medium was replaced with a fresh medium together with the test compound every two or three days. On the last day, the medium was centrifuged to remove the supernatant, and the cells were washed with PBS. The washed cells were subjected to a 3-cycle freege-thaw treatment using a −70° C. deep freezer to allow enzymes elute in a lysis buffer. The lysed protein was quantified, followed by measurement of ALP activity using 4-nitrophenylphosphate.
Further, a group treated only with DMSO or OF was tested for ALP activities for comparison.

Structure (SMILES) | activity at 10 µM
O=C1C(c2cccnc2)=C(c2ccccc2F)c2ccc(OCCN3CCOCC3)cc21 [Example 80, 6-(2-morpholinoethoxy)-3-(2-fluorophenyl)-2-(pyridin-3-yl)-1H-inden-1-one] | 74%
O=C1C(c2cccnc2)=C(c2cccc(F)c2)c2ccc(OCCN3CCOCC3)cc21 [Example 81, 6-(2-morpholinoethoxy)-3-(3-fluorophenyl)-2-(pyridin-3-yl)-1H-inden-1-one] | 116%
O=C1C(c2cccnc2)=C(c2ccc(F)cc2F)c2ccc(OCCN3CCOCC3)cc21 [Example 82, 6-(2-morpholinoethoxy)-3-(2,4-difluorophenyl)-2-(pyridin-3-yl)-1H-inden-1-one] | 178%
O=C1C(c2ccccn2)=C(c2ccccc2)c2ccc(OCCN3CCOCC3)cc21 [Example 83, 6-(2-morpholinoethoxy)-3-phenyl-2-(pyridin-2-yl)-1H-inden-1-one] | 18%
O=C1C(c2ccc3c(c2)OCO3)=C(c2ccccc2)c2ccc(OCCN3CCOCC3)cc21 [Example 85, 2-(benzo[1,3]dioxol-5-yl)-6-(2-morpholinoethoxy)-3-phenyl-1H-inden-1-one] | 77%
O=C1C(c2ccc(Cl)s2)=C(c2ccccc2)c2ccc(OCCN3CCOCC3)cc21 [Example 86, 2-(5-chlorothiophen-2-yl)-6-(2-morpholinoethoxy)-3-phenyl-1H-inden-1-one] | 77%
Cn1ccc2cc(C3=C(c4ccccc4)c4ccc(OCCN5CCOCC5)cc4C3=O)ccc21 [Example 87, 2-(1-methyl-1H-indol-5-yl)-6-(2-morpholinoethoxy)-3-phenyl-1H-inden-1-one] | 71%
O=C1C(c2ccc[nH]2)=C(c2ccccc2)c2ccc(OCCN3CCOCC3)cc21 [Example 90, 6-(2-morpholinoethoxy)-3-phenyl-2-(1H-pyrrol-2-yl)-1H-inden-1-one] | 63%
O=C1C(c2cc3ccccc3o2)=C(c2ccccc2)c2ccc(OCCN3CCOCC3)cc21 [Example 91, 6-(2-morpholinoethoxy)-2-(benzofuran-2-yl)-3-phenyl-1H-inden-1-one] | 67%
O=C1C(c2cnc3ccccc3c2)=C(c2cc(F)cc(F)c2)c2ccc(OCCN3CCS(=O)(=O)CC3)cc21 [Example 92, 3-(3,5-difluorophenyl)-6-[2-(1,1-dioxothiomorpholin-4-yl)ethoxy]-2-(quinolin-3-yl)-1H-inden-1-one hydrochloride salt] | 262%
COc1ccc(C2=C(c3cc(F)cc(F)c3)c3ccc(OCCN4CCS(=O)(=O)CC4)cc3C2=O)cn1 [Example 93, 3-(3,5-difluorophenyl)-2-(6-methoxypyridin-3-yl)-6-[2-(1,1-dioxothiomorpholin-4-yl)ethoxy]-1H-inden-1-one hydrochloride salt] | 155%
Cc1ccc(C2=C(c3cc(F)cc(F)c3)c3ccc(OCCN4CCS(=O)(=O)CC4)cc3C2=O)cc1 [Example 94, 3-(3,5-difluorophenyl)-6-[2-(1,1-dioxothiomorpholin-4-yl)ethoxy]-2-p-tolyl-1H-inden-1-one hydrochloride salt] | 109%
COc1ccc(C2=C(c3cc(F)cc(F)c3)c3ccc(OCCN4CCS(=O)(=O)CC4)cc3C2=O)cc1F [Example 95, 2-(3-fluoro-4-methoxyphenyl)-3-(3,5-difluorophenyl)-6-[2-(1,1-dioxothiomorpholin-4-yl)ethoxy]-1H-inden-1-one hydrochloride salt] | 203%
CS(=O)(=O)N1CCN(CCOc2ccc3c(c2)C(=O)C(c2cnc4ccccc4c2)=C3c2cc(F)cc(F)c2)CC1 [Example 96, 3-(3,5-difluorophenyl)-6-{2-[4-(methylsulfonyl)piperazin-1-yl]ethoxy}-2-(quinolin-3-yl)-1H-inden-1-one hydrochloride salt] | 152%
COc1ccc(C2=C(c3cc(F)cc(F)c3)c3ccc(OCCN4CCN(S(C)(=O)=O)CC4)cc3C2=O)cn1 [Example 97, 3-(3,5-difluorophenyl)-2-(6-methoxypyridin-3-yl)-6-{2-[4-(methylsulfonyl)piperazin-1-yl]ethoxy}-1H-inden-1-one hydrochloride salt] | 179%
Cc1ccc(C2=C(c3cc(F)cc(F)c3)c3ccc(OCCN4CCN(S(C)(=O)=O)CC4)cc3C2=O)cc1 [Example 98, 3-(3,5-difluorophenyl)-6-{2-[4-(methylsulfonyl)piperazin-1-yl]ethoxy}-2-p-tolyl-1H-inden-1-one hydrochloride salt] | 146%

Structure (SMILES) | activity at 10 µM
COc1ccc(C2=C(c3cc(F)cc(F)c3)c3ccc(OCCN4CCN(S(C)(=O)=O)CC4)cc3C2=O)cc1F [Example 99, 2-(3-fluoro-4-methoxyphenyl)-3-(3,5-difluorophenyl)-6-{2-[4-(methylsulfonyl)piperazin-1-yl]ethoxy}-1H-inden-1-one hydrochloride salt] | 212%
COc1ccc(C2=C(c3cc(F)cc(F)c3)c3ccc(OCCC4CCN(S(C)(=O)=O)CC4)cc3C2=O)cn1 [Example 100, 3-(3,5-difluorophenyl)-2-(6-methoxypyridin-3-yl)-6-{2-[1-(methylsulfonyl)piperidin-4-yl]ethoxy}-1H-inden-1-one hydrochloride salt] | 185%
CS(=O)(=O)N1CCC(CCOc2ccc3c(c2)C(=O)C(c2cnc4ccccc4c2)=C3c2cc(F)cc(F)c2)CC1 [Example 101, 3-(3,5-difluorophenyl)-6-{2-[1-(methylsulfonyl)piperidin-4-yl]ethoxy}-2-(quinolin-3-yl)-1H-inden-1-one hydrochloride salt] | 216%
COc1ccc(C2=C(c3cc(F)cc(F)c3)c3ccc(OCCC4CCN(S(C)(=O)=O)CC4)cc3C2=O)cc1F [Example 102, 3-(3,5-difluorophenyl)-2-(3-fluoro-4-methoxyphenyl)-6-{2-[1-(methylsulfonyl)piperidin-4-yl]ethoxy}-1H-inden-1-one] | 220%
Cc1ccc(C2=C(c3cc(F)cc(F)c3)c3ccc(OCCC4CCN(S(C)(=O)=O)CC4)cc3C2=O)cc1 [Example 103, 3-(3,5-difluorophenyl)-6-{2-[1-(methylsulfonyl)piperidin-4-yl]ethoxy}-2-p-tolyl-1H-inden-1-one] | 209%
CS(=O)(=O)N1CCN(CCCOc2ccc3c(c2)C(=O)C(c2cnc4ccccc4c2)=C3c2cc(F)cc(F)c2)CC1 [Example 104, 3-(3,5-difluorophenyl)-6-{3-[4-(methylsulfonyl)piperazin-1-yl]propoxy}-2-(quinolin-3-yl)-1H-inden-1-one hydrochloride salt] | 124%
Cc1ccc(C2=C(c3cc(F)cc(F)c3)c3ccc(OCCCN4CCN(S(C)(=O)=O)CC4)cc3C2=O)cc1 [Example 105, 3-(3,5-Difluorophenyl)-6-{3-[4-(methylsulfonyl)piperazin-1-yl]propoxy}-2-p-tolyl-1H-inden-1-one hydrochloride salt] | 99%
COc1ccc(C2=C(c3cc(F)cc(F)c3)c3ccc(OCCCN4CCN(S(C)(=O)=O)CC4)cc3C2=O)cc1F [Example 106, 2-(3-fluoro-4-methoxyphenyl)-3-(3,5-difluorophenyl)-6-{3-[4-(methylsulfonyl)piperazin-1-yl]propoxy}-1H-inden-1-one hydrochloride salt] | 133%
COc1ccc(C2=C(c3cc(F)cc(F)c3)c3ccc(OCCCN4CCN(S(C)(=O)=O)CC4)cc3C2=O)cn1 [Example 107, 3-(3,5-difluorophenyl)-2-(6-methoxypyridin-3-yl)-6-{3-[4-(methylsulfonyl)piperazin-1-yl]propoxy}-1H-inden-1-one hydrochloride salt] | 286%
Cc1ccc(C2=C(c3ccc(F)cc3F)c3ccc(OCCCN4CCN(S(C)(=O)=O)CC4)cc3C2=O)cc1 [Example 108, 3-(2,4-difluorophenyl)-6-{3-[4-(methylsulfonyl)piperazin-1-yl]propoxy}-2-p-tolyl-1H-inden-1-one] | 111%
COc1ccc(C2=C(c3ccc(F)cc3F)c3ccc(OCCCN4CCN(S(C)(=O)=O)CC4)cc3C2=O)cn1 [Example 109, 3-(2,4-difluorophenyl)-6-{3-[4-(methylsulfonyl)piperazin-1-yl]propoxy}-2-(6-methoxypyridin-3-yl)-1H-inden-1-one] | 177%
COc1ccc(C2=C(c3ccc(F)cc3F)c3ccc(OCCCN4CCN(S(C)(=O)=O)CC4)cc3C2=O)cc1F [Example 110, 2-(3-fluoro-4-methoxyphenyl)-3-(2,4-difluorophenyl)-6-{3-[4-(methylsulfonyl)piperazin-1-yl]propoxy}-1H-inden-1-one] | 207%
CS(=O)(=O)N1CCN(CCCOc2ccc3c(c2)C(=O)C(c2cnc4ccccc4c2)=C3c2ccc(F)cc2F)CC1 [Example 111, 3-(2,4-difluorophenyl)-6-{3-[4-(methylsulfonyl)piperazin-1-yl]propoxy}-2-(quinolin-3-yl)-1H-inden-1-one] | 117%
Cc1ccc(C2=C(c3ccc(F)cc3F)c3ccc(OCCN4CCS(=O)(=O)CC4)cc3C2=O)cc1 [Example 112, 3-(2,4-difluorophenyl)-6-[2-(1,1-dioxothiomorpholin-4-yl)ethoxy]-2-p-tolyl-1H-inden-1-one] | 70%
COc1ccc(C2=C(c3ccc(F)cc3F)c3ccc(OCCN4CCS(=O)(=O)CC4)cc3C2=O)cn1 [Example 113, 3-(2,4-difluorophenyl)-2-(6-methoxypyridin-3-yl)-6-[2-(1,1-dioxothiomorpholin-4-yl)ethoxy]-1H-inden-1-one] | 217%
